Patent publication US20040067998A1, “Antifungal and/or antiparasitic pharmaceutical composition and novel indole derivatives as active principle of such a composition” (priority 2003, published 2004)
Converted amounts (≈) assume the structure as drawn. “And” between values parts separate entries of the source, which are not always exact repeats. Equal values may be shown once. Read-outs that look alike come from different tables or passages of the source.

Legend:
Format in all cases: cell-based
[1] = test system: Aspergillus fumigatus (strain n°AF 980003); experiment: Antifungal activity on a clinical strain of Aspergillus fumigatus (Alamar Blue microplate test); settings: for CMI or CI80 Aspergillus fumigatus (AF980003) / MIC: strain AF980003; for activity against Aspergillus fumigatus (in words): summary of Tables 27 to 40; for MIC: read-out: CMI or CI80 Aspergillus fumigatus (AF980003)
[2] = test system: Candida albicans (strain n° CA980001); experiment: Antifungal activity on a clinical strain of Candida albicans (MTT colorimetric microplate test); settings: for CMI or CI80 Candida albicans (CA980001) / MIC: strain CA980001; for activity of inhibition of Candida albicans (in words): summary of Tables 27 to 40; for MIC: read-out: CMI or CI80 Candida albicans (CA980001)
[3] = test system: promastigote stage of Leishmania mexicana; experiment: Antiparasitic activity on the promastigote form of Leishmania (MTT); settings: for IC50: read-out: CI50 Leishmania mexicana Promastigotes
[4] = Candida albicans, 24 h at 37° C., MTT
[5] = promastigotes, 36 h at 26° C., MTT

Compound: CCn1ccc2cc(Br)cc(C(c3ccc(F)cc3)n3ccnc3)c21 (stereo not drawn) [compound 58]
- CMI or CI80 Aspergillus fumigatus (AF980003) [1]: 59 ± 4 μM and 23 ± 2 μg/mL
- activity against Aspergillus fumigatus (in words) [1]: strong activity
- CMI or CI80 Candida albicans (CA980001) [2]: 0.69 ± 0.01 μM and 0.27 ± 0.01 μg/mL
- activity of inhibition of Candida albicans (in words) [2]: most active
- CI50 Leishmania mexicana Promastigotes ([3]; promastigotes): 2.4 ± 0.12 µg/mL (≈ 6.03 µM)
- IC50 ([3]; promastigotes): 6.2 ± 0.35 µM

Compound: OC(Cn1ccnc1)(Cn1ccc2ccccc21)c1ccc(F)cc1F (stereo not drawn) [compound 77]
- CMI or CI80 Aspergillus fumigatus (AF980003) [1]: 11 ± 7 μM and 4 ± 2 μg/mL
- CMI or CI80 Candida albicans (CA980001) [2]: 0.00035 µg/mL
- MIC [2]: 0.0011 µM (≈ 0.000389 µg/mL)
- activity of inhibition of Candida albicans (in words) [2]: most active
- CI50 Leishmania mexicana Promastigotes ([3]; promastigotes): 1.59 µg/mL (≈ 4.5 µM)
- IC50 ([3]; promastigotes): 4.5 µM

Compound: CCn1c(C)c(C(c2ccc(F)cc2)n2ccnc2)c2ccccc21 (stereo not drawn) [compound 43]
- CMI or CI80 Aspergillus fumigatus (AF980003) [1]: 53 ± 3 μM and 17 ± 1 μg/mL
- CMI or CI80 Candida albicans (CA980001) [2]: 6 ± 1 μM and 2.0 ± 1 μg/mL
- activity of inhibition of Candida albicans (in words) [2]: significant activity
- CI50 Leishmania mexicana Promastigotes ([3]; promastigotes): 1.88 ± 0.1 µg/mL (≈ 5.64 µM)
- IC50 ([3]; promastigotes): 5.9 ± 0.14 µM

Compound: Fc1ccc(C(C(n2ccc3ccccc32)n2nnc3ccccc32)n2ccnc2)cc1 (stereo not drawn) [Cpsé 83, 1-[2-(4-Fluorophenyl)-2-(1H-imidazol-1-yl)-1-(benzotriazol-1-yl)ethyl]-1H-indole]
- MIC ([1]; Aspergillus fumigatus): > 100 µM
- MIC ([2]; Candida albicans, 24 h): 66 ± 6 µM (≈ 27.9 µg/mL)
- CMI or CI80 Candida albicans (CA980001) ([2]; listed as 46): 26 ± 2 µg/mL
- IC50 ([3]; Leishmania mexicana): 14 µg/mL and 35 µM

Compound: CCn1c(C(c2ccc(Cl)cc2)n2ccnc2)c(C)c2cc(Br)ccc21 (stereo not drawn) [compound 33]
- CMI or CI80 Aspergillus fumigatus (AF980003) [1]: 56 ± 3 μM and 24 ± 1 μg/mL
- activity against Aspergillus fumigatus (in words) [1]: strong activity
- CMI or CI80 Candida albicans (CA980001) [2]: 59 ± 1 μM and 25 ± 0.5 μg/mL
- activity against Leishmania mexicana (in words) [3]: strong activity
- CI50 Leishmania mexicana Promastigotes ([3]; promastigotes): 2.87 ± 2 µg/mL (≈ 6.69 µM)
- IC50 ([3]; promastigotes): 6.7 ± 2.1 µM

Compound: Clc1ccc(Cn2cc(CCn3ccnc3)c3ccccc32)cc1 [compound 59]
- MIC [1]: >100 µM
- MIC [2]: >100 µM
- CI50 Leishmania mexicana Promastigotes [3]: 15.6 µg/mL (≈ 46.5 µM)
- IC50 [3]: 87 µM

Compound: Fc1ccccc1Cn1cc(Cn2cncn2)c2cc(Br)ccc21 [compound 24]
- MIC ([1]; Alamar Blue): >100 µM
- MIC ([2]; 24 h at 37° C., MTT): >100 µM
- CI50 Leishmania mexicana Promastigotes [3]: 30.74 µg/mL (≈ 79.8 µM)
- IC50 [3]: 79.8 µM

Compound: OC(Cn1cncn1)(Cn1ccc2ccccc21)c1ccc(C(F)(F)F)cc1 (stereo not drawn) [compound 79]
- MIC [2]: <0.001 µM

Compound: Clc1ccc(Cn2cc(Cn3ccnc3)c3cc(Br)ccc32)cc1 [Cpsé 10, 5-Bromo-1-(4-chlorobenzyl)-3-(1H-imidazol-1-ylmethyl)-1H-indole]
- MIC ([1]; Aspergillus fumigatus, Alamar Blue): > 100 µM
- MIC [2, 4]: > 100 µM
- activity against Leishmania mexicana (in words) [3]: strong activity
- IC50 ([3]; Leishmania mexicana, promastigotes, 36 h at 26° C., MTT): 3 µg/mL and 7.5 µM

Compound: CCCC(c1cn(Cc2ccc(Cl)cc2)c2ccccc12)n1ccnc1.O=C(O)/C=C/C(=O)O (stereo not drawn) [65f]
- MIC [1]: >100 µM
- MIC [2]: >100 µM
- CI50 Leishmania mexicana Promastigotes [3]: 37.7 ± 4.5 µg/mL
- IC50 [3]: 78.7 ± 9.5 µM

Compound: Fc1ccc(Cn2ccc3c(Cn4ccnc4)cccc32)cc1 [compound 17]
- CMI or CI80 Aspergillus fumigatus (AF980003) ([1]; Alamar Blue): 72 ± 3 μM and 21.99 ± 2 μg/ml
- CMI or CI80 Candida albicans (CA980001) ([2]; 24 h at 37° C., MTT): 54 ± 1 μM and 16.49 ± 1 μg/ml

Compound: Fc1ccc2c(c1)c(Cn1ccnc1)cn2Cc1ccc(Cl)cc1 [compound 15]
- CMI or CI80 Aspergillus fumigatus (AF980003) ([1]; Alamar Blue): 61 ± 3 μM and 20.73 ± 3 μg/ml
- activity against Aspergillus fumigatus (in words) [1]: strong activity
- CMI or CI80 Candida albicans (CA980001) ([2]; 24 h at 37° C., MTT): 21 ± 1 μM and 7 ± 1 μg/ml
- CI50 Leishmania mexicana Promastigotes [3, 5]: 5.4 ± 1.6 µg/mL (≈ 15.9 µM)
- IC50 [3, 5]: 15.9 ± 5 µM

Compound: Clc1ccc(Cn2cc(CCCCn3ccnc3)c3ccccc32)cc1.O=[N+]([O-])O [61n]
- MIC [1]: >100 µM
- MIC [2]: >100 µM
- CI50 Leishmania mexicana Promastigotes [3]: 20.05 ± 0.3 µg/mL
- IC50 [3]: 62 ± 0.3 µM

Compound: CCn1c(C(c2ccc(Cl)cc2Cl)n2ccnc2)c(C)c2ccccc21 (stereo not drawn) [compound 30]
- CMI or CI80 Candida albicans (CA980001) [2]: 76 ± 2 μM and 25 ± 1 μg/mL

Compound: Fc1ccccc1Cn1cc(Cn2ccnc2)c2cc(Br)ccc21 [compound 11]
- MIC ([1]; Alamar Blue): >100 µM
- MIC ([2]; 24 h at 37° C., MTT): >100 µM
- CI50 Leishmania mexicana Promastigotes [3]: 18.3 ± 0.6 µg/mL (≈ 47.6 µM)
- IC50 [3]: 47.7 ± 1.6 µM

Compound: CCn1cc(C(c2ccc(Cl)cc2)n2ccnc2)c2ccccc21.O=[N+]([O-])O (stereo not drawn) [41n]
- CMI or CI80 Candida albicans (CA980001) [2]: 19 ± 10 μM and 8 ± 4 μg/mL

Compound: CC(c1cn(Cc2ccc(F)cc2F)c2ccccc12)n1ccnc1.O=[N+]([O-])O (stereo not drawn) [69n]
- CMI or CI80 Aspergillus fumigatus (AF980003) [1]: 64 ± 5 μM and 21.59 μg/mL
- activity against Aspergillus fumigatus (in words) [1]: strong activity
- CMI or CI80 Candida albicans (CA980001) [2]: 65 ± 6 μM and 26 ± 5 μg/mL

Compound: CCC(C)n1ncn(-c2ccc(N3CCN(c4ccc(OCC5COC(Cn6cncn6)(c6ccc(Cl)cc6Cl)O5)cc4)CC3)cc2)c1=O (stereo not drawn) [Itraconazole]
- MIC ([1]; Aspergillus fumigatus): 0.71 µM (≈ 0.501 µg/mL)
- CMI or CI80 Aspergillus fumigatus (AF980003) [1]: 0.5 µg/mL

Compound: CCn1ccc2cccc(C(c3cccc(Cl)c3)n3ccnc3)c21.O=[N+]([O-])O (stereo not drawn) [55n]
- MIC [1]: >100 µM
- CMI or CI80 Candida albicans (CA980001) [2]: 0.039 µg/mL
- MIC [2]: 0.098 µM
- activity of inhibition of Candida albicans (in words) [2]: most active

Compound: CCn1c(C(c2cccc(Br)c2)n2ccnc2)c(C)c2ccccc21.O=[N+]([O-])O (stereo not drawn) [26n]
- CMI or CI80 Candida albicans (CA980001) [2]: 60 ± 1 μM and 27 ± 1 μg/mL

Compound: CCn1ccc2cccc(C(c3ccc(Cl)cc3)n3ccnc3)c21.O=[N+]([O-])O (stereo not drawn) [56n]
- CMI or CI80 Candida albicans (CA980001) [2]: 0.16 µg/mL
- MIC [2]: 0.4 µM
- activity of inhibition of Candida albicans (in words) [2]: most active

Compound: N#Cc1ccc(Cn2cc(Cn3ccnc3)c3cc(Br)ccc32)cc1 [compound 13]
- CMI or CI80 Candida albicans (CA980001) ([2]; 24 h at 37° C., MTT): 59 ± 5 μM and 23 ± 2 μg/ml

Compound: Brc1ccc(C(Cn2ccc3ccccc32)n2ccnc2)cc1 (stereo not drawn) [compound 84]
- CMI or CI80 Aspergillus fumigatus (AF980003) [1]: 68 ± 3 μM and 29 ± 1 μg/mL
- CI50 Leishmania mexicana Promastigotes [3]: 3.6 ± 0.4 µg/mL (≈ 9.83 µM)
- IC50 [3]: 8.45 ± 1.02 µM

Compound: CCn1cc(C(c2cccc(Cl)c2)n2ccnc2)c2ccccc21.O=[N+]([O-])O (stereo not drawn) [40n]
- CMI or CI80 Candida albicans (CA980001) [2]: 7 ± 1 μM and 3.1 ± 1 μg/mL
- activity of inhibition of Candida albicans (in words) [2]: significant activity

Compound: CCn1c(C(c2ccc(Br)cc2)n2ccnc2)c(C)c2ccccc21.O=[N+]([O-])O (stereo not drawn) [27n]
- CMI or CI80 Candida albicans (CA980001) [2]: 57 ± 4 μM and 25 ± 2 μg/mL

Compound: Cc1c(C(C)n2ccnc2)c2ccccc2n1Cc1ccc(Cl)cc1Cl.O=[N+]([O-])O (stereo not drawn) [71n]
- CMI or CI80 Aspergillus fumigatus (AF980003) [1]: 74 ± 3 μM and 28.44 μg/mL
- CMI or CI80 Candida albicans (CA980001) [2]: 52 ± 3 μM and 23.31 μg/mL

Compound: CCn1cc(C(c2ccc(Cl)cc2Cl)n2ccnc2)c2ccccc21.O=[N+]([O-])O (stereo not drawn) [42n]
- CMI or CI80 Candida albicans (CA980001) [2]: 73 ± 3 μM and 32 ± 1 μg/mL

Compound: CCn1c(C(c2ccc(F)cc2)n2ccnc2)c(C)c2ccccc21 (stereo not drawn) [Cpsé 31, 1-Ethyl-2-[(4-fluorophenyl)(1H-imidazol-1-yl)methyl]-3-methyl-1H-indole]
- MIC [2, 4]: 58 ± 4 µM (≈ 19.3 µg/mL)
- CMI or CI80 Candida albicans (CA980001) ([2]; 24 h at 37° C., MTT, listed as 18): 18 ± 1 µg/mL

Compound: Fc1ccc(Cn2c(Cn3ccnc3)cc3ccccc32)cc1.O=[N+]([O-])O [3n]
- CMI or CI80 Candida albicans (CA980001) ([2]; 24 h at 37° C., MTT): 16 ± 6 μM and 6 ± 2 μg/ml

Compound: CC(n1ccc2ccccc21)C(O)(Cn1cncn1)c1ccc(F)cc1F (stereo not drawn) [compound 81]
- MIC [2]: <0.001 µM

Compound: CCn1c(C(c2ccc(Cl)cc2)n2ccnc2)c(C)c2ccccc21.O=[N+]([O-])O (stereo not drawn) [29n]
- CMI or CI80 Candida albicans (CA980001) [2]: 6 ± 1 μM and 2 ± 1 μg/mL
- activity of inhibition of Candida albicans (in words) [2]: significant activity

Compound: CCn1c(C(c2cccc(Cl)c2)n2ccnc2)c(C)c2ccccc21.O=[N+]([O-])O (stereo not drawn) [28n]
- CMI or CI80 Candida albicans (CA980001) [2]: 58 ± 2 μM and 24 ± 1 μg/mL

Compound: Fc1ccc(Cn2ccc3ccc(Cn4ccnc4)cc32)cc1.O=[N+]([O-])O [19n]
- MIC ([1]; Alamar Blue): >100 µM
- CMI or CI80 Candida albicans (CA980001) ([2]; 24 h at 37° C., MTT): 77 ± 1 μM and 28.36 ± 1 μg/ml
